Results from patent publication US20250325552A1, “SUBSTITUTED THIADIAZOLYL DERIVATIVES AS DNA POLYMERASE THETA INHIBITORS” (IDEAYA Biosciences, Inc., priority 2020, published 2025).

Biological target: T1, Polθ theta (1-899) (hPolQ) (Homo sapiens (Human), UniProt O75417)
Experiment: Biological Assay 2: Polθ ATPase activity, NADH oxidation-coupled enzymatic assay (5 nM enzyme, 120 min)
Assay type: biochemical
Settings: Polθ (1-899) 5 nM, 100 μM ATP, 300 nM dT50 ssDNA; Examples 269 to 271; read-out: ATPase NADH coupling:Standard Screening:hPolQ IC50
Experimental: The ability of the compounds (Example 269 to Example 271) of described herein to inhibit ATPase activity of Polθ theta (1-899) was determined using the assay described below.
Polθ Theta ATPase activity was determined by measuring the rate of ATP turn over in a NADH oxidation-coupled enzymatic assay. 11-point dilution series of compounds were used in a 384 well format for the inhibition assays. Polθ theta (1-899) (5 nM) in assay buffer (20 mM Tris HCl (pH 7.80), 80 mM KCl, 10 mM MgCl2, 1 mM DTT, 0.01% BSA, 0.01% Tween, 5% glycerol) was transferred to the test wells (20 μL), except the low control wells (20 μL of assay buffer was added to the low control wells). The plate was then incubated at room temperature for 15 min. An equal volume (20 μL) of 100 μM ATP, 300 nM dT50 (single-stranded DNA (ssDNA) containing 50 thymine bases), 300 μM NADH, 6 mM PEP, 10 U/mL lactate dehydrogenase and U/mL pyruvate kinase in assay buffer was added to all the test wells. The plate was then centrifuged at 1000 rpm for 1 min. The reaction was monitored for 120 min by measuring absorbance (λ=340 nm) in a PHERAstar FSX multimode plate reader every 3 minute. The high control (DMSO with enzyme) with low absorbance intensity represents no inhibition of ATPase reaction while the low control (DMSO with buffer) with high absorbance intensity represents full inhibition of ATPase activity. Slope of the reaction progress curves were used to calculate the rate of ATP hydrolysis. The rates were used to determine the percent inhibition using a four-parameter inhibition model to generate IC50, Hill slope and max inhibition.

T1 sequence (O75417 1-899): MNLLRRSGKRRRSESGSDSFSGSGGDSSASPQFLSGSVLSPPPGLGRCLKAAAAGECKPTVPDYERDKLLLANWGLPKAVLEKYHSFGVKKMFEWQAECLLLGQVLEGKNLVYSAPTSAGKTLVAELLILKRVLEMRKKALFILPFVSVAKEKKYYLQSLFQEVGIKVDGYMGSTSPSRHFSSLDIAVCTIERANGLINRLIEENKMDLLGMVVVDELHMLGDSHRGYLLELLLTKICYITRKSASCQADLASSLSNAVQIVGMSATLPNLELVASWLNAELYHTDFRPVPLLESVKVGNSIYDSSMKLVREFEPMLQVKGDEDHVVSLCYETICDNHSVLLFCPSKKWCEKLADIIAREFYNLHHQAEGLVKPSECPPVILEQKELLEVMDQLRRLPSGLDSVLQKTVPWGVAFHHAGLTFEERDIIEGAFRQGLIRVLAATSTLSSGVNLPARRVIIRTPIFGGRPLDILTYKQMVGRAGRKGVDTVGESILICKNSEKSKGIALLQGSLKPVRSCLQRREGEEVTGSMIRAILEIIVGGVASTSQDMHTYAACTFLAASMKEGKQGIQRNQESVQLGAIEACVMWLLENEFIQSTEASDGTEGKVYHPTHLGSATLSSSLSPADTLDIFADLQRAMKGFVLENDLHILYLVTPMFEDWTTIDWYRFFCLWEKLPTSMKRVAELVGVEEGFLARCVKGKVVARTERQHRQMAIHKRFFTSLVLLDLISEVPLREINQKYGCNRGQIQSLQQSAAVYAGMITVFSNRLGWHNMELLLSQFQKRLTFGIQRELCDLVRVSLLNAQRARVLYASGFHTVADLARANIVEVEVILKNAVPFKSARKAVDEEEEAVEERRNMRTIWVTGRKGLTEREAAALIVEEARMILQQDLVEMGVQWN

IC50 [nM] | SMILES
1000 to 10000 | COc1cnc(Cl)cc1-c1cc(C)ncc1C(=O)Nc1nnc(OC[C@@H]2CCN(C(C)=O)C2)s1 [Example 270, (R)—N-(5-((1-acetylpyrrolidin-3-yl)methoxy)-1,3,4-thiadiazol-2-yl)-2′-chloro-5′-methoxy-6-methyl-(4,4′-bipyridine)-3-carboxamide]
≤ 200 | COc1cnc(Cl)cc1-c1cc(C)ncc1C(=O)Nc1nnc(OCC(C)(C)N2CCNC2=O)s1 [Example 271, 2′-chloro-5′-methoxy-6-methyl-N-(5-(2-methyl-2-(2-oxoimidazolidin-1-yl)propoxy)-1,3,4-thiadiazol-2-yl)-(4,4′-bipyridine)-3-carboxamide]
≤ 200 | COc1cnc(Cl)cc1-c1cc(C)ncc1C(=O)Nc1nnc(OCC2(F)CN(C)C2)s1 [Example 269, 2′-chloro-N-(5-((3-fluoro-1-methylazetidin-3-yl)methoxy)-1,3,4-thiadiazol-2-yl)-5′-methoxy-6-methyl-(4,4′-bipyridine)-3-carboxamide]

Biological target: T1, Polθ theta (1-899) (hPolQ)
Experiment: Biological Assay 1: Polθ ATPase activity, NADH oxidation-coupled enzymatic assay (10 nM enzyme, 30 min)
Assay type: biochemical
Settings: Polθ (1-899) 10 nM, 100 μM ATP, 300 nM dT50 ssDNA; Examples 1 to 268; read-out: ATPase NADH coupling:Standard Screening:hPolQ IC50
In short: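 ATP turnover was coupled to NADH oxidation and followed at 340 nm every minute for 30 min. Enzyme (residues 1-899, 10 nM) sat with compound for 15 min at room temperature before an equal-volume addition of 100 μM ATP plus 300 nM dT50 ssDNA. Progress-curve slopes from 10-point dilutions were fitted by a four-parameter model.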

IC50 [nM] | SMILES
≤ 200 | COc1ccc(Cl)cc1-c1cc(C)ncc1C(=O)Nc1nnc(OCc2ccc(CO)cn2)s1 [Example 39, 4-(5-chloro-2-methoxyphenyl)-N-(5-((5-(hydroxymethyl)pyridin-2-yl)methoxy)-1,3,4-thiadiazol-2-yl)-6-methylpyridine-3-carboxamide]
≤ 200 | COc1cccc(F)c1-c1cc(C)ncc1C(=O)Nc1nnc(OCc2ccc(OC3COC3)cn2)s1 [Example 38, 4-(2-fluoro-6-methoxyphenyl)-6-methyl-N-(5-((5-(oxetan-3-yloxy)pyridin-2-yl)methoxy)-1,3,4-thiadiazol-2-yl)pyridine-3-carboxamide]
≤ 200 | COc1cccc(F)c1-c1cc(C)ncc1C(=O)Nc1nnc(OC[C@H]2CC[C@@H](O)CC2)s1 [Example 101, 4-(2-fluoro-6-methoxyphenyl)-N-(5-(((1s,4s)-4-hydroxycyclohexyl)methoxy)-1,3,4-thiadiazol-2-yl)-6-methylnicotinamide]
200 to 500 | COc1ccccc1-c1cnccc1C(=O)Nc1nnc(OCC2CCCCO2)s1 (stereo not shown) [compound 2, 3-(2-methoxyphenyl)-N-(5-((tetrahydro-2H-pyran-2-yl)methoxy)-1,3,4-thiadiazol-2-yl)isonicotinamide]
